Laboratory results as given in patent US20230322756A1, “FUSED IMIDAZOLE DERIVATIVE, PREPARATION METHOD THEREFOR, AND MEDICAL USE THEREOF” (JIANGSU HENGRUI MEDICINE CO., LTD., priority 2020, published 2023).

What was measured:
[1] = Pharmacokinetic evaluation in dogs; assay type: in vivo; conditions: beagle dogs; for Vd/F / AUC(0-t) / CL/F / half-life / Cmax: male, dog, plasma; for Vd/F: read-out: Apparent distribution volume Vz/F; for AUC(0-t): read-out: Area under curve AUC0-t; for CL/F: read-out: Clearance CLz/F; for half-life: read-out: Half-life T½ (converted); for Cmax: read-out: Plasma concentration Cmax
Experimental: Dogs are the test animals. The drug concentrations in the plasma of dogs at different time points after intragastric (ig) administration/intravenous (iv) injection of the compounds of the present disclosure were determined by an LC/MS/MS method. The pharmacokinetic performance in beagles of the compounds of the present disclosure was studied and the pharmacokinetic profile thereof was evaluated.
Twelve beagle dogs, males, evenly divided into 4 groups, provided by the animal reserve bank (999M-004) of Shanghai Medicilon Inc. All animals were beagle dogs qualified for physical examination and healthy without abnormalities.
Intragastric administration: the dose was 2 mg/kg and the volume was 50.0 mL/kg.
Intravenous injection administration: the dose was 0.5 mg/kg and the volume was 20.0 mL/kg.
The blood was placed in an EDTA-K2 anticoagulation tube and centrifuged at 10,000 rpm for 5 min (4° C.), and plasma was separated out within 1 h and then stored at −80° C. before being tested. Food intake was resumed 3 h after administration.
The process from blood collection to centrifugation was performed under an ice bath.
(§1) The content of the test compounds at different concentrations in plasma of beagle dogs after the administration was determined: 10 μL of plasma of beagle dogs at each time point after the administration was mixed with 200 μL of acetonitrile (containing a solution of internal standard camptothecin (100 ng/mL)); the mixture was vortexed for 1 min, and centrifuged for 7 min (18,000 r/min), and 6 μL of supernatant was taken for LC/MS/MS analysis.

[2] = Pharmacokinetic evaluation in mice; assay type: in vivo, C57 mice; conditions: for AUC(0-t) / half-life / Vd/F / CL/F / Cmax: female, C57, mouse, plasma; for AUC(0-t): read-out: Area under curve AUC0-t; for half-life: read-out: Half-life T½ (converted); for Vd/F: read-out: Apparent distribution volume Vz/F; for CL/F: read-out: Clearance CLz/F; for Cmax: read-out: Plasma concentration Cmax
Experimental: The drug concentrations in the plasma of the test animals (mice) at different time points after intragastric (ig) administration/intravenous (iv) injection of the compounds of the present disclosure were determined by an LC/MS/MS method. The pharmacokinetic behavior of the compound of the present disclosure in mice was studied and its pharmacokinetic profile was evaluated.
Thirty-six C57 mice, female, evenly divided into 4 groups, purchased from Beijing Vital River Laboratory Animal Technology Co., Ltd., with animal production license number: SCXK (Shanghai) 2017-0005.
Intragastric administration: the drugs were intragastrically administered to mice at a dose of 2.0 mg/kg and a volume of 20.0 mL/kg.
Intravenous injection administration: the drugs were administered to mice by intravenous injection at a dose of 1.0 mg/kg and a volume of 10.0 mL/kg.
The blood was placed in an EDTA-K2 anticoagulation tube and centrifuged at 10,000 rpm for 1 min (4° C.), and plasma was separated out within 1 h and then stored at −80° C. before being tested. The process from blood collection to centrifugation was performed under an ice bath.
as §1, with “of mice” for “of beagle dogs”, “determined: 25” for “determined: 10”, “(containing 50 μL of” for “(containing”, “for 10” for “for 7”, “min (4000” for “min (18,000”, “and 0.5” for “and 6”

CYP2C19 = CYP2C19 (Homo sapiens (Human), UniProt P33261); experiment: Time-dependent inhibition (TDI) of CYP2C19 (S)-mephenytoin site of metabolism in human liver microsomes; assay type: in vitro ADME; conditions: for IC50: (S)-mephenytoin
Experimental: I. Materials and Instruments • 1. Phosphate buffered saline (20×PBS, purchased from Sangon); • 2. NADPH (ACROS, A2646-71-1); • 3. Human liver microsome (Corning Gentest, Cat No. 452161, Lot No. 905002, Donor36); • 4. ABI QTrap 4000 LC-MS System (AB Sciex); • 5. ZORBAX Extend-C18, 3×50 mm, 3.5 μm (Agilent, USA); • 6. CYP probe substrate ((S)-mephenytoin/20 μM, powder purchased from J&K Scientific Ltd., Cat No. 303768) and positive control inhibitor (ticlopidine, powder purchased from SIGMA, Cat No. T6654-1G).
A 100 mM PBS buffer was prepared. A 15 mM MgCl2 solution and a 10 mM NADPH solution were prepared using the buffer. A 0.5 mg/mL microsome solution was prepared using the 15 mM MgCl2 solution. A 30 mM stock solution was diluted with DMSO to a series of solutions I with concentrations of 30 mM, 10 mM, 3 mM, 1 mM, 0.3 mM, 0.1 mM, 0.03 mM and 0 mM, which were then 10-fold diluted with acetonitrile (ACN) and finally 50-fold diluted with phosphate-buffered solution (PBS) to obtain a series of test working solutions II (60 μM, 20 μM, 6 μM, 2 μM, 0.6 μM, 0.2 μM, 0.06 μM and 0 μM). A 20 μM working solution of (S)-mephenytoin was prepared by dilution with PBS.
The above prepared series of working solutions were well shaken and divided into 50 μL aliquots in corresponding reaction plates (+NADPH group and −NADPH group were set) in triplicate. 20 μL of the liver microsome working solution was added to each 96-well plate. 10 μL of NADPH was added to +NADPH group. The plates were incubated in a water bath at 37° C., and a timer was set on the incubation. After 30 min of incubation, the plates were taken out, and +NADPH group was supplemented with 20 μL of corresponding substrate solutions and −NADPH group with 20 μL of corresponding substrate solutions and 10 μL of NADPH. The plates were incubated in a water bath at 37° C., and a timer was set on the incubation. After 30 min of incubation, the plates were taken out, and the reactions were terminated with 250 μL of an ACN solution containing an internal standard. The plates were shaken on a shaker at 800 rpm for 10 min and centrifuged on a centrifuge at 4000 rpm for 15 min. 100 μL of supernatant and 80 μL of ultrapure water were well mixed and subjected to LC-MS/MS analysis.

[3] = intravenous injection, 0.5 mg/kg
[4] = po, intragastric administration, 2 mg/kg
[5] = 30 min pre-incubation with NADPH
[6] = 30 min pre-incubation without NADPH

Sequence of CYP2C19 (P33261 whole entry): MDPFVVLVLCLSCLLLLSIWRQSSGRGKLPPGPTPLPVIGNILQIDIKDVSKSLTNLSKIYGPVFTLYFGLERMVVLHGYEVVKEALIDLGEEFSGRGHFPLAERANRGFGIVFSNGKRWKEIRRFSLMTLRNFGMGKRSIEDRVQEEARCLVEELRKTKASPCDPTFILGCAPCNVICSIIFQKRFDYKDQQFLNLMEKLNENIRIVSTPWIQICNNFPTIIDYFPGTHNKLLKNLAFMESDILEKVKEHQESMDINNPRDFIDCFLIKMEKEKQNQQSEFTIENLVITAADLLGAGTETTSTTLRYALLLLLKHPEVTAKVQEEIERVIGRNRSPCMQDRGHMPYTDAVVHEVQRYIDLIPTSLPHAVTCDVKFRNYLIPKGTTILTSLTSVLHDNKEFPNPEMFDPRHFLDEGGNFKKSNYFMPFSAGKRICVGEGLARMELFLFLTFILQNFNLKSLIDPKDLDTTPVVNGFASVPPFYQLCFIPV

Row | SMILES | Apparent distribution volume Vz/F [1, 3] | Clearance CLz/F [1, 3] | Vd/F [1, 4] | AUC(0-t) [1, 4] | CL/F [1, 4] | half-life [1, 4] | Cmax [1, 4] | AUC(0-t) [1, 3] | half-life [1, 3] | Cmax [1, 3] | AUC(0-t) ([2]; intravenous injection, 1 mg/kg) | half-life ([2]; intravenous injection, 1 mg/kg) | Vd/F [2, 4] | AUC(0-t) [2, 4] | CL/F [2, 4] | half-life [2, 4] | Cmax [2, 4] | Apparent distribution volume Vz/F ([2]; intravenous injection, 1 mg/kg) | Clearance CLz/F ([2]; intravenous injection, 1 mg/kg) | IC50 (CYP2C19; [5]) | further results
1 | O=C(O)c1ccc2nc(CN3CCC(c4cccc5c4O[C@@H](c4ccc(Cl)cc4F)CO5)CC3)n(C[C@@H]3CCO3)c2n1 [Example 5, 2-((4-((S)-3-(4-Chloro-2-fluorophenyl)-2,3-dihydrobenzo[b][1,4]dioxan-5-yl)piperidin-1-yl)methyl)-3-((S)-oxetan-2-ylmethyl)-3H-imidazo[4,5-b]pyridine-5-carboxylic acid] | 448 mL/kg | 1.8 mL/min/kg | 0.636 L/kg | 22100 ng·h/mL | 1.7 mL/min/kg | 294 min | 4430 ng/mL | 4830 ng·h/mL | 180 min | 1740 ng/mL | 2190 ng·h/mL | 90 min | 5.76 L/kg | 1440 ng·h/mL | 23.1 mL/min/kg | 174 min | 359 ng/mL | 981 mL/kg | 7.55 mL/min/kg | – | –
2 | C[C@]1(c2ccc(Cl)cc2F)Oc2cccc(C3CCN(Cc4nc5ccc(C(=O)O)cc5n4C[C@@H]4CCO4)CC3)c2O1 [Positive compound 1, reference compound] | – | – | – | – | – | – | – | – | – | – | – | – | – | – | – | – | – | – | – | 2.6 µM | IC50 (CYP2C19; [6]): 6.4 µM; IC50 shift at 30 min (CYP2C19; probe (S)-mephenytoin, CYP2C19 (S)-mephenytoin site, read-out: IC50 shift fold): 2.5
3 | O=C(O)c1ccc2nc(CN3CCC(c4cccc5c4O[C@@H](c4ccc(Cl)cc4F)CO5)CC3)n(C[C@@H]3CCO3)c2c1 [Example 4, 2-((4-((S)-3-(4-Chloro-2-fluorophenyl)-2,3-dihydrobenzo[b][1,4]dioxan-5-yl)piperidin-1-yl)methyl)-1-(((S)-oxetan-2-yl)methyl)-1H-benzo[d]imidazole-6-carboxylic acid] | 908 mL/kg | 1.9 mL/min/kg | 0.713 L/kg | 21400 ng·h/mL | 1.6 mL/min/kg | 318 min | 4040 ng/mL | 4010 ng·h/mL | 324 min | 1220 ng/mL | 1870 ng·h/mL | 78 min | 4.01 L/kg | 2250 ng·h/mL | 14.8 mL/min/kg | 186 min | 797 ng/mL | 1014 mL/kg | 8.9 mL/min/kg | > 30 µM | IC50 (CYP2C19; [6]): > 30 µM
